Experimental data as given in the NIST ThermoML archive (doi:10.1016/j.jct.2012.02.035).
Numbers after ± are expanded uncertainties.

How the values were obtained:
[1] = Crystal; DTA
[2] = Solid-liquid equilibrium temperature; settings: 101 kPa; Crystal 2; DTA
[3] = Molar enthalpy of transition or fusion; settings: DSC

SMILES | Normal melting temperature [1] | Solid-liquid equilibrium temperature [2] | Molar enthalpy of transition or fusion ([3]; Crystal 2) | Molar enthalpy of transition or fusion ([3]; Crystal)
CCCC[N+](CCCC)(CCCC)CCCC.O=[N+]([O-])[O-] [tetrabutylammonium nitrate] | 118.0 ± 1.1 °C | 361.4 ± 0.2 K | 0.0478 ± 0.0239 kcal/mol | 3.42 ± 0.12 kcal/mol
CC[N+](CC)(CC)CC.O=[N+]([O-])[O-] [tetraethylammonium nitrate] | – | 371.5 ± 0.3 K | 2.58 ± 0.0956 kcal/mol | –
